{"source": "patent US6878522B2", "about": "“Methods for the identification of compounds useful for the treatment of disease states mediated by prostaglandin D2” (priority 2000, dated 2005)", "key": {"CRTH2": {"target": "T1, CRTH2 (Homo sapiens, UniProt Q9Y5Y4)", "T1 construct": "prolactin (prolac) signal peptide (N); expressed in transfected cells; host or cells: 300-19 cells (transformed murine pre-B lymphocytes)", "T1 sequence (Q9Y5Y4 1-395)": "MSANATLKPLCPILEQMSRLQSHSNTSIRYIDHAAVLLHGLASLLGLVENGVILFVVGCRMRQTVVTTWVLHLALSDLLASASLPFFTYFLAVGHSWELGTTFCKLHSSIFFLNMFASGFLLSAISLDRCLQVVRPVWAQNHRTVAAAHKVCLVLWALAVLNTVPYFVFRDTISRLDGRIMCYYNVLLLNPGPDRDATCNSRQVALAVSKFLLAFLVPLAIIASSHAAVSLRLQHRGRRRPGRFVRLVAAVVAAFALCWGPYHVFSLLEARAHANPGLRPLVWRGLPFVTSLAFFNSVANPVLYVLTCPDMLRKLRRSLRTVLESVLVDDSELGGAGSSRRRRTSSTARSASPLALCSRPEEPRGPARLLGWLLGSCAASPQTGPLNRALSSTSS", "assay": "[3H]-PGD2 binding to 300-19 cells transfected with CRTH2", "experimental": "In a preferred embodiment, a binding assay can be performed as follows: • (a) 300-19 cells (see below) that transiently express CRTH2 are pelleted, and washed twice at room temperature with assay buffer (Hank's balanced saline, including Ca^+2 and Mg^+2, and supplemented with HEPES and sodium bicarbonate). The cells are resuspended at a concentration of 2×10^7 cells/ml. […] After the addition of 50 μl scintillation fluid, the plate is counted in a scintillation counter (1 min per well). […]\nTo directly determine the binding affinity of CRTH2 for PGD2, the following binding assay was used. […] After the addition of 50 μl scintillation fluid (Packard Microscint 0), the plate was counted in a Packard Topcount scintillation counter (1 min per well). […]\nThe receptor concentration was calculated to be 79,554 sites/cell."}, "TP receptor": {"target": "T2, TP receptor (Homo sapiens, UniProt P21731)", "T2 sequence (P21731 1-343)": "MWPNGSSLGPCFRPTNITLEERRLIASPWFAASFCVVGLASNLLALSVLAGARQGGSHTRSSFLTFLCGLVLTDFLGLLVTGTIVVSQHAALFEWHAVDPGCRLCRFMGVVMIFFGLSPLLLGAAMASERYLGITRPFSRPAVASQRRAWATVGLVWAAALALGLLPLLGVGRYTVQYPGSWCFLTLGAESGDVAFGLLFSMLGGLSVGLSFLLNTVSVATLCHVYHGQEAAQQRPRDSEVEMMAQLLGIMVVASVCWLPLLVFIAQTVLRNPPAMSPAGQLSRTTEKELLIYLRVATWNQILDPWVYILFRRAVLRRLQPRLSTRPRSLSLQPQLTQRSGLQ", "details": "cited from earlier work"}}}
{"smiles": "CCCCC[C@H](O)/C=C/[C@H]1C(=O)C[C@H](O)[C@@H]1C/C=C\\CCCC(=O)O", "note": "[PGD2, prostaglandin D2]", "values": [{"measurement": "IC50", "setting": "CRTH2; 300-19 CRTH2 transfectants, 2 nM [3H]-PGD2, room temperature", "result": 18, "unit": "nM"}, {"measurement": "Kd", "setting": "CRTH2; CRTH2 transfectant, read-out: Kd of [3H]-PGD2 binding (Scatchard plot)", "result": 18.1, "unit": "nM"}, {"measurement": "Ki", "setting": "TP receptor", "result": 75000, "unit": "nM"}]}
